Measurements: ChEMBL document CHEMBL1201862, “PubChem BioAssay data set” (2004)
The source made the active and inactive calls.

Columns and labels:
[1] = molecular target: Cytochrome P450 2C9 (Homo sapiens, UniProt P11712)
[2] = molecular target: Cytochrome P450 3A4 (Homo sapiens, UniProt P08684);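 further: CYP3A4 tested as one member of a cytochrome P450 panel screen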
[3] = molecular target: Troponin, cardiac muscle (Homo sapiens, UniProt P19429+P45379+P63316); assay: Fluorescence-based biochemical high throughput dose response assay for activators of the calcium sensitivity of cardiac Regulated Thin Filaments (RTF). [Related pubchem assays (depositor defined):AID493008, AID493018, AID504382, AID504383]; type: protein-complex assay
[4] = molecular target: T1, Endoribonuclease toxin MazF (Escherichia coli K-12, UniProt P0AE70); assay: activation of MazEF endoribonuclease cleavage – biochemical, fluorescence, single-stranded RNA substrate, uHTS hits, dose response (AID 588481); type: functional
T1 sequence (P0AE70 whole entry): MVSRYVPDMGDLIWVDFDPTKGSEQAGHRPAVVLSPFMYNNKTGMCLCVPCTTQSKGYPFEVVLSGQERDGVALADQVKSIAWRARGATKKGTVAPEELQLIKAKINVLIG

[5] = molecular target: T1, Endoribonuclease toxin MazF; assay: substrate-only fluorescence increase artefacts – biochemical, single-stranded RNase substrate, counter-screen for MazEF activator project, dose response (AID 588502); type: functional
[6] = system: HeLa; assay: ATP-based viability loss in HeLa cells – cell-based, CellTiter-Glo luminescence, cherry-pick samples, cytotoxicity control for MITF activator project, dose response (AID 540259); type: functional; details: Homo sapiens
[7] = system: H4; assay: Luminescence Cell-Based Dose Response HTS to Identify Activators of 5'UTR Stem-Loop Driven Prion Protein mRNA Translation in H4 Neuroglioblastoma Cells. [Related pubchem assays: 1829 (Project Summary), 1814 (Primary HTS)]; type: functional; details: Homo sapiens
[8] = Luminescence Cell-Based Dose Response HTS to Identify Activators of Luciferase Translation or Activity in H4 […] Cells. [Related pubchem assays: 1829 (Project Summary), 1814 (Primary HTS)]; type: functional
[9] = molecular target: T2, Alkaline phosphatase, tissue-nonspecific isozyme (Homo sapiens, UniProt P05186); assay: potency against alkaline phosphatase TNAP – biochemical, luminescent, dose response, SAR follow-up (AID 1056)
T2 sequence (P05186 whole entry): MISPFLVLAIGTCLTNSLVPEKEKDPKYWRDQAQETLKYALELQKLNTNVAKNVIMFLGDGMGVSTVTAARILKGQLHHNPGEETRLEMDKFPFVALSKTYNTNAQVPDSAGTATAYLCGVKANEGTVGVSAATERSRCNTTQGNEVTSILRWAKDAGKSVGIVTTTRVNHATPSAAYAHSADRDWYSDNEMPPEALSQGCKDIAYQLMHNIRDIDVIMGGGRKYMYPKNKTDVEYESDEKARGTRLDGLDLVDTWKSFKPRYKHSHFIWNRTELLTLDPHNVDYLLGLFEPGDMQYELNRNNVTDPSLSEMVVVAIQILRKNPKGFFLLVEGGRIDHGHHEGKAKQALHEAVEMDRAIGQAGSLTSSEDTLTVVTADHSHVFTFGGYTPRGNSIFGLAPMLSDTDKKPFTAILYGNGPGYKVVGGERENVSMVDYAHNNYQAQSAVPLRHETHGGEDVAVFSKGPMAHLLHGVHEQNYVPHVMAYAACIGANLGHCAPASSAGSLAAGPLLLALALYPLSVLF

[10] = molecular target: Glyceraldehyde-3-phosphate dehydrogenase (Homo sapiens, UniProt P04406)
[11] = toxicity toward HepG2 liver cells – cell-based, plate reader, cherry-pick, antagonist series, cytotoxicity control, dose response (AID 743416); type: functional
[12] = system: Vero; assay: cells; type: functional; details: Chlorocebus sabaeus
[13] = blockers of bursicon-stimulated LGR2 cAMP reporter – cell-based, HEK293, CRE-luciferase reporter, cherry pick, set 2, dose response (AID 743343); type: functional;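 further: transfected cells were stimulated with diluted bursicon conditioned medium after compound addition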
[14] = A549 cell cytotoxicity, dose response, cytotoxicity control, plate reader, cherry-pick, antagonist series (AID 743412); type: functional, cell-based
[15] = viability loss in HEK293 cells – cell-based, plate reader, cherry-picked samples, cytotoxicity control, dose response (AID 743446); type: functional
[16] = blockade of melanocortin 4 receptor signaling – cell-based, plate reader, cherry pick, counter-screen for LGR2 antagonist project, dose response (AID 743444); type: functional;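 further: transfected HEK 293 cells stimulated with alpha-MSH peptide; potency of inhibitors of the alpha-MSH evoked signal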
[17] = system: HEK293; assay: EBV LMP1 TES2 canonical NF-kB signalling blockers – cell-based, HEK293, luciferase, cherry-pick, dose response (AID 588343); type: functional; details: Homo sapiens

Chain of Cytochrome P450 3A4 (P08684 whole entry): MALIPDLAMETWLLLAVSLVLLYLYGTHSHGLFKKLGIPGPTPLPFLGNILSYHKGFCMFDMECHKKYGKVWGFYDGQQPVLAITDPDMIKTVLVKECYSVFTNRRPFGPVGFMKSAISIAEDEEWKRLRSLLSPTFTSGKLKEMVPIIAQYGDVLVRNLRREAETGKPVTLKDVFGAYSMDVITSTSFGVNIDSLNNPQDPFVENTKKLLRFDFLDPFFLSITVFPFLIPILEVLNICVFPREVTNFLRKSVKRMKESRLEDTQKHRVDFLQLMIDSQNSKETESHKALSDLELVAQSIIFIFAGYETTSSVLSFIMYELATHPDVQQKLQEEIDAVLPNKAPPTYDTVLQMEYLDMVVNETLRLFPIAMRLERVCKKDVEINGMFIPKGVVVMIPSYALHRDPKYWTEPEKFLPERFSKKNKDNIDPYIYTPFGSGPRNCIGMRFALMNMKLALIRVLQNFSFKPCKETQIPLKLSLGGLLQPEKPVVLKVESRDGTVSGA
Chain of Cytochrome P450 2C9 (P11712 whole entry): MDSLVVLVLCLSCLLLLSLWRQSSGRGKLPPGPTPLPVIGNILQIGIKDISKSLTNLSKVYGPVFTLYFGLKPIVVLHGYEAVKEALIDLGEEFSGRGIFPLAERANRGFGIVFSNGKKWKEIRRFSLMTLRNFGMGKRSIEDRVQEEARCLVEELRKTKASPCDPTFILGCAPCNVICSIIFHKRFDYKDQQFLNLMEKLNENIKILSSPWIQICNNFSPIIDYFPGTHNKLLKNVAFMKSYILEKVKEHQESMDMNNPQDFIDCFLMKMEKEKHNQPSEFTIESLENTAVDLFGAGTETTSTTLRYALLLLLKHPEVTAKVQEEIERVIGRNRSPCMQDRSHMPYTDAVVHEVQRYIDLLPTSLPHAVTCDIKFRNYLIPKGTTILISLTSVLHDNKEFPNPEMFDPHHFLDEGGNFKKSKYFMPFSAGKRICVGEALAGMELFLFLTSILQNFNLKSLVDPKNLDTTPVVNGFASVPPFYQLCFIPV
Chain of Glyceraldehyde-3-phosphate dehydrogenase (P04406 whole entry): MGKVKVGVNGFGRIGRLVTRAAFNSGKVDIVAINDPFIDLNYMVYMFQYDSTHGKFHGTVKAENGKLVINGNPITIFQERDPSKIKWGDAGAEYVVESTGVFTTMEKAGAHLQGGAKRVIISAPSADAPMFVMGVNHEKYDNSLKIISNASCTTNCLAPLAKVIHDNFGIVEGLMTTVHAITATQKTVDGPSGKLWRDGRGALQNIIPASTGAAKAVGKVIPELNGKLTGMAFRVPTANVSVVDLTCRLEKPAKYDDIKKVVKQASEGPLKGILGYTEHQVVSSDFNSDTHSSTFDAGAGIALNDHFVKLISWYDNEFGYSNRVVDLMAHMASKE

Cn1c(=N)c(S(=O)(=O)c2ccc(F)cc2)cc2c(=O)n3ccccc3nc21
AC50 [1]: 17.8 µM (inconclusive) | AC50 [2]: inconclusive

Cc1ccccc1-n1nnnc1SCC(C)C
EC50 [3]: > 71.5 µM (inactive)

COc1cc(OC)c(OC)cc1/C=C(\C#N)C(=O)NCc1cccs1
EC50 [4]: > 99 µM (inactive) | EC50 [5]: > 99 µM (inactive)

Cn1c(C(=O)NCCc2c[nH]c3ccccc23)cc2sccc21
AC50 [6]: 239 µM (active) | EC50 [7]: 14.7 µM (active) | EC50 [8]: 21.7 µM (active)

COc1ccc(S(=O)(=O)Nc2cnc3ccccc3c2)cc1OC
IC50 [9]: > 100 µM (inactive) | IC50 [10]: > 100 µM (not active)

O=C(Cc1nc2ccccc2[nH]1)c1cccc([N+](=O)[O-])c1
AC50 [11]: 11.2 µM (active) | CC50 [12]: 6.19 µM (active) | AC50 [13]: 4.47 µM (active) | AC50 [14]: 20.7 µM (active) | AC50 [15]: 12.1 µM (active) | AC50 [16]: 5.45 µM (active)

COc1ccc(-c2cc(C(=O)N3CCCC3)no2)cc1
AC50 [13]: 5.07 µM (active) | AC50 [17]: 3.97 µM (active) | AC50 [16]: 5.22 µM (active)

Cn1c2ccccc2c(=O)c2ccc(-c3ccc4c(c3)OCO4)cc21
AC50 [6]: 46.6 µM (active)

O=C(CCNc1ccccc1)c1ccc2c(c1)OCO2
AC50 [6]: 111 µM (active)

COC(=O)N1CCC2(CC1)CCN(c1ncccn1)CC2
AC50 [2]: inconclusive
